Each structure is given as a SMILES string. Values after ≈ are worked out from the molar mass of the structure shown. Values joined by “and” are separate entries in the source; they are usually repeats but may differ in a detail not shown here. Equal entries are not always repeated. Where two headings read alike, the source gives them in different places. A value given as a limit tells only on which side of the number the result lay.

One assay has as its target T1, DNA gyrase from E. coli (Escherichia coli, UniProt P0AES6).
T1 construct: purchased Inspiralis
Briefly: supercoiling HTS plate assay. It is filed as biochemical. Summed up: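 E. coli gyrase tested by supercoiling and topo IV by relaxation in high-throughput plate format. IC50 from seven inhibitor concentrations; mean of three independent measurements.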

In assay [1] the test system is Enterococcus faecalis ATCC 29212. Briefly: MIC broth microdilution (CLSI). It is filed as cell-based, E. faecalis. The note with it: Enterococcus faecalis, ATCC29212.
Assay [2] deals with Enterobacter cloacae spp. cloacae ATCC 13047. As to the kind of experiment: MIC broth microdilution (CLSI). It is filed as cell-based. The note with it: Enterobacter cloacae, ATCC13047. Summed up: (§1)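 Compounds were serially diluted in cation-adjusted Mueller Hinton broth 2 according to CLSI guidance, and each well received 5 × 10^4 cells. After 18 h at 37 °C and 150 rpm, absorbance at 600 nm defined the MIC as a triplicate-mean increment below 1.5-fold background.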

For assay [3], the system named is S. aureus (VISA) ATCC 700699. Briefly: MIC broth microdilution (CLSI). It is filed as cell-based. Summed up: as §1
Assay [4] has as its system 3 sensitive and 7 MDR A. baumannii clinical isolates. As to the kind of experiment: MIC, Hungarian clinical isolates and controls (384-well). It is filed as cell-based.
The next assay concerns E. coli ATCC 25922. Briefly: IHMA QC MIC. The class given is cell-based.
Setting [5] is: QC strain E. coli ATCC 25922, test date 2021-11-26.
The mark [6] stands for this setting: Escherichia coli, ATCC25922; read-out: MIC (QC, repeated tests).

With `Cc1[nH]c(C(=O)Nc2nc3c(N4CCOCC4)cc(C(=O)O)cc3s2)c(Cl)c1Cl` [7a, 2-(3,4-Dichloro-5-methyl-1H-pyrrole-2-carboxamido)-4-morpholinobenzo[d]thiazole-6-carboxylic Acid], at DNA gyrase from E. coli (read-out: IC50), the concentration for half-maximal inhibition (IC50) is less than 10 nM. Further, the MIC in assay [1] was less than 0.0312 mg/L; in assay [2], greater than 64 mg/L; in assay [3], less than 0.03125 mg/L; in assay [3] (Staphylococcus aureus), less than 0.0312 mg/L; against E. coli ATCC 25922 (Escherichia coli, ATCC25922), 8 mg/L (≈ 17.6 µM); in the assay with E. coli ATCC 25922 (Escherichia coli, ATCC25922, read-out: MIC (QC, repeated tests)), 8 mg/L (≈ 17.6 µM). The same compound showed an MIC with E. coli ATCC 25922 (setting [5]) of 8 mg/L (≈ 17.6 µM). In assay [4], the “Cumulative % at MIC” value was 80% and 100%.
`Cc1[nH]c(C(=O)Nc2nc3c(N4[C@@H]5CC[C@H]4COC5)cc(C(=O)O)cc3s2)c(Cl)c1Cl` [7h, 4-((1R,5S)-3-Oxa-8-azabicyclo[3.2.1]octan-8-yl)-2-(3,4-dichloro-5-methyl-1H-pyrrole-2-carboxamido)benzo[d]thiazole-6-carboxylic Acid]: the values for the IC50 on DNA gyrase from E. coli (IC50 [nM] E. coli DNA gyrase) and on DNA gyrase from E. coli (read-out: IC50) were 16 ± 6 nM and 13 ± 1 nM, respectively. The minimum inhibitory concentration (MIC) in assay [1] (read-out: MIC) was less than 0.0312 mg/L; in assay [2] (read-out: MIC) it was 16 mg/L; in assay [3] (Staphylococcus aureus, read-out: MIC), 0.0625 mg/L; against E. coli ATCC 25922 (setting [5]), 4 mg/L (≈ 8.31 µM). The “Cumulative % at MIC” value in assay [4] was found to be 100%.
Regarding `C[C@@H](O)[C@H]1C(=O)N2C(C(=O)O)=C(S[C@@H]3CN[C@H](C(=O)N(C)C)C3)[C@H](C)[C@H]12` [Meropenem, meropenem], the “Cumulative % at MIC” value in assay [4] (n=10, MIC 1 µg/mL) stood at 30%; in assay [4] (n=10, MIC 64 µg/mL), 100%; in assay [4] (n=10, MIC […]), 10%. Further, the MIC in the assay on E. coli ATCC 25922 (setting [6]) was no more than 0.06 mg/L.
Consider `COc1c(N2C[C@@H]3CCCN[C@@H]3C2)c(F)cc2c(=O)c(C(=O)O)cn(C3CC3)c12` [Moxifloxacin, moxifloxacin], for which the “Cumulative % at MIC” value came to 20% in assay [4] (n=10, MIC 0.0625 µg/mL); 30% in assay [4] (n=10, MIC 0.5 µg/mL); 70% in assay [4] (n=10, MIC 32 µg/mL); 100% in assay [4] (n=10, MIC 64 µg/mL). In the assay with E. coli ATCC 25922 (setting [6]), the MIC was no more than 0.5 mg/L.

The values are drawn from article PMC10041525, “New Dual Inhibitors of Bacterial Topoisomerases with Broad-Spectrum Antibacterial Activity and In Vivo Efficacy against Vancomycin-Intermediate Staphylococcus aureus” (Journal of Medicinal Chemistry, 2023).
